Experiments:
bovine CNGA2 channels = molecular target: T1, bovine CNGA2 channels (Bos taurus, UniProt Q03041); assay: Patch-clamp of inside-out oocyte membrane patches with olfactory CNGA2 channels; type: cell-based; conditions: for current, % of its maximal value: 500 μM compound, maximal value at 500 μM cAMP, n=3; for inhibition of channel activation by cAMP: applied in the presence of cAMP; for current amplitude, % of the amplitude observed in the absence of the compound: 50 μM cAMP, 50 μM compound, n=9
T1 construct: expressed in transfected cells; host or cells: Xenopus laevis oocytes (cRNA injection; inside-out membrane patches)
T1 sequence (Q03041 1-663): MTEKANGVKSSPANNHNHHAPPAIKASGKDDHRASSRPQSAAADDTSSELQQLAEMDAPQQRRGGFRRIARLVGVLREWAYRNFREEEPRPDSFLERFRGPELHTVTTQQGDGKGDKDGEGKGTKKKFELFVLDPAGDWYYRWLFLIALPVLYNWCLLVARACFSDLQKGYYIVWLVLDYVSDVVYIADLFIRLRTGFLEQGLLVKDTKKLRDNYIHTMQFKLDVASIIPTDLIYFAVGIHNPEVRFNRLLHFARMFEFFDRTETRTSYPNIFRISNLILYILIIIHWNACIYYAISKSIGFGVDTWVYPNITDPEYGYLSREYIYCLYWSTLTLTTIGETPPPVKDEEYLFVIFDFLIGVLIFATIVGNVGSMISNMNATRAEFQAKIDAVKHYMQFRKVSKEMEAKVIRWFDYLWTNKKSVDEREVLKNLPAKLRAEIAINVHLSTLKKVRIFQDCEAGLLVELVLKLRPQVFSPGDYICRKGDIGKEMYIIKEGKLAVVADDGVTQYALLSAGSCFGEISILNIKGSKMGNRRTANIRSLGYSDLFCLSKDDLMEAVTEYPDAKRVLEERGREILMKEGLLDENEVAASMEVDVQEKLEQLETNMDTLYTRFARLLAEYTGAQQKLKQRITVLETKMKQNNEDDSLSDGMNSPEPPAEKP
Description: Next, the effects of cyclic nucleotide boranophosphates, disclosed in this invention, on olfactory cyclic nucleotide-gated ion channels in clamps of oocyte cell membrane patches were investigated.
For the experiments, oocytes were obtained and prepared as described previously (Biskup, C. et al., Nature 446, 440-443 (2007)). In brief, oocytes were obtained by partial ovariectomy from adult females of Xenopus laevis anaesthesized with 0.3% 3-aminobenzoic acid ethyl ester (Sigma). The oocytes were treated for 60-90 min with 1.2 mg/ml collagenase (Type I, Sigma) and separated manually. 40-70 nl of a solution containing cRNA encoding bovine CNGA2 channels (accession No. X55010) was injected, and the oocytes were incubated at 18° C. in Barth medium until they were used for the experiments within 3-6 days after injection. Immediately prior to the experiments the vitelline membrane of the oocytes was removed.
Currents were recorded in inside-out patches with the patch-clamp technique. The patch pipettes were pulled from quartz tubing (outer diameter 1.0 mm, inner diameter 0.7 mm) using a laser puller (P-2000, Sutter Instrument, Novato, Calif.). The pipette resistance was 0.8-2.5 MΩ. Recording was performed with an Axopatch 200B amplifier (Molecular Devices, Sunnyvale, Calif.). All experiments were performed with the same recording solution in the bath and the pipette containing (in mM) 150 KCl, 1 EGTA, 5 HEPES. pH was adjusted to 7.4 with KOH.
Measurements were controlled and data were collected with the ISO3 setup (MFK, Niedernhausen, Germany). The sampling rate was 5 kHz (filter 2 kHz). To test for possible background channel activity, each excised patch was first exposed to a solution containing no cyclic nucleotides.
FIGS. 15 A-C depict the agonistic activity of Rp-8-Br-cAMPB on CNGA2 channels. Currents were recorded in a patch containing CNGA2 channels. The patch membrane was clamped subsequently from 0 mV to −50 mV, +50 mV and back to 0 mV. […] (C) Current measured in the presence of 500 μM Rp-8-Br-cAMPB.
FIGS. 16 A-F depict the antagonistic activity of Sp-8-Br-cAMPB on CNGA2 channels. Currents were recorded in a patch containing CNGA2 channels. The patch membrane was clamped subsequently from 0 mV to −50 mV, +50 mV and back to 0 mV.

PDE IV (A4B) = molecular target: T2, PDE IV (A4B) (Homo sapiens, UniProt P27815); assay: Stability against PDE IV, HPLC; type: in vitro ADME; conditions: several days
T2 construct: Houslay lab, Glasgow/Scotland (obtained from another laboratory)
Protocol: Next, stability of the disclosed boranophosphates against PDE IV (A4B, Houslay lab, Glasgow/Scotland) was tested in similar experiments as described above.

[1] = Degradation Example 1: oxidation with hydrogen peroxide, monitored by HPLC; type: physicochemical; conditions: after further addition of 10 μl of 30% H2O2, two hours at RT
Description: In order to check out the stability of the boranophosphates described in this invention towards oxidising conditions in comparison to the corresponding phosphorothioates, 0.1 μmol of the sodium salts of each, Rp-8-bromoadenosine-3′,5′-cyclic boranophosphate (Rp-8-Br-cAMPB, example 1), Sp-8-bromoadenosine-3′,5′-cyclic boranophosphate (Sp-8-Br-cAMPB, example 2), Rp-8-bromoadenosine-3′,5′-cyclic phosphorothioate (Rp-8-Br-cAMPS, Biolog) and Sp-8-bromoadenosine-3′,5′-cyclic phosphorothioate (Sp-8-Br-cAMPS, Biolog) were dissolved in 100 μl of eluent and the mixture was analyzed by HPLC (RP-18, 11% acetonitrile, 20 mM triethylammonium formate buffer, pH 6.1, 1.5 ml/min, UV 258 nm). The following elution profile was recorded: Rp-8-Br-cAMPS (5:13 min.)<Sp-8-Br-cAMPS (7:23 min.)<Sp-8-Br-cAMPB (9:13 min.)<Rp-8-Br-cAMPB ([…].).
Subsequently, aqueous hydrogen peroxide (Merck) was added in small portions while the stability of the four compounds was permanently monitored over time.
10 μl of H2O2 (0.3%) as well as 10 μl of 3% H2O2 were added to no effect.

PDE 1 from bovine heart = assay: Resistance towards phosphodiesterase: incubation with PDE 1 from bovine heart, HPLC
Protocol: For this purpose 0.1 μmol of Rp-8-bromoadenosine-3′,5′-cyclic boranophosphate (example 1) and Sp-8-bromoadenosine-3′,5′-cyclic boranophosphate […] dissolved in TRIS buffer pH 7.2 containing calcium chloride and calmodulin and incubated with PDE type I from bovine brain (Sigma-Aldrich) at 37° C. Activity of the enzyme was checked by hydrolysis of cyclic AMP. Stability was monitored by HPLC (RP-18, 11 Vol.-% propanol-2, 20 mM TEAF buffer, pH 6.8, 1 ml/min., UV 264 nm). […] This strategy of testing PDE performance was applied accordingly in degradation examples 10 and 11.
Thus, Rp-8-Br-cAMPB (example 1) and Sp-8-Br-cAMPS (Biolog, Bremen/Germany) were incubated with PDE 1 from bovine heart (Sigma-Aldrich) and monitored by HPLC as described above.
Rp-2′-O-Me-cAMPB (example 7) and Sp-2′-O-Me-cAMPS (Biolog, Bremen/Germany).

[2] = test system: PDE type I from bovine brain; assay: Resistance towards phosphodiesterase: incubation with PDE type I from bovine brain, HPLC
Protocol: Activity of the enzyme was checked by hydrolysis of cyclic AMP. Stability was monitored by HPLC (RP-18, 11 Vol.-% propanol-2, 20 mM TEAF buffer, pH 6.8, 1 ml/min., UV 264 nm).

T2 sequence (P27815 whole entry): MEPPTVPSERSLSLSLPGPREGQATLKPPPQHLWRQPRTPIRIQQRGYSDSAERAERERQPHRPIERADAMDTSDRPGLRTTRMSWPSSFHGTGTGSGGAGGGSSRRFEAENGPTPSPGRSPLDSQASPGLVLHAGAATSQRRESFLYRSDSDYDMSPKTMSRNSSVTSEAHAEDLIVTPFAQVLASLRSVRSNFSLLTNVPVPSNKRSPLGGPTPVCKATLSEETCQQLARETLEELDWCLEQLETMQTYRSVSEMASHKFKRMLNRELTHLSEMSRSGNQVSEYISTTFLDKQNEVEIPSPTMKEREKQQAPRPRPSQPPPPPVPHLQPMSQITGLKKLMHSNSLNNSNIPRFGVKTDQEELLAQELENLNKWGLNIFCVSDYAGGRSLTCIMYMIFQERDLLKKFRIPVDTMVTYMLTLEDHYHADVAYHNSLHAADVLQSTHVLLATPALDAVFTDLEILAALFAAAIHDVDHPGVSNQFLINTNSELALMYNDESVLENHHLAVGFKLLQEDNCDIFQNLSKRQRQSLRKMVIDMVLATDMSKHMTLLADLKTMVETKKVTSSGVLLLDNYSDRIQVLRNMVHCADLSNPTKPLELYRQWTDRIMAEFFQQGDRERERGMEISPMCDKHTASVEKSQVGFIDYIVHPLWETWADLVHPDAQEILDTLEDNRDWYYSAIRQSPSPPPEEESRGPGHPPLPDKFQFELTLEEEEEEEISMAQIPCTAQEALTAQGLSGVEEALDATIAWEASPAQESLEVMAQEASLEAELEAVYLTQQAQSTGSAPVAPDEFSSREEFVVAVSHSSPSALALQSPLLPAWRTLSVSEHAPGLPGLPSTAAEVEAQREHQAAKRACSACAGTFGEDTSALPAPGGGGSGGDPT

current, % of its maximal value (bovine CNGA2 channels; +50 mV) [%] | current, % of its maximal value (bovine CNGA2 channels; −50 mV, mean±SEM) [%] | stability against PDE IV (PDE IV (A4B)) | HPLC signal area lost [1] [%] | degradation by PDE (PDE 1 from bovine heart) | current amplitude, % of the amplitude observed in the absence of the compound (bovine CNGA2 channels; +50 mV) [%] | current amplitude, % of the amplitude observed in the absence of the compound (bovine CNGA2 channels; −50 mV) [%] | intrinsic activity on CNGA2 channels (bovine CNGA2 channels; up to 100 μM, absence of cAMP) | degradation by PDE [2] | Substance | inhibition of channel activation by cAMP (bovine CNGA2 channels)
14±4 | 7±1 | completely stable | 35 | completely stable |  |  |  |  | 8-Bromoadenosine-3′,5′-cyclic boranophosphate, Rp-isomer [Rp-8-Br-cAMPB] | does not inhibit channel activation by cAMP
 |  |  | 35 |  | 48±11 | 34±9 | did not show any intrinsic activity | no degradation was detected | 8-Bromoadenosine-3′,5′-cyclic boranophosphate, Sp-isomer [Sp-8-Br-cAMPB] | competitive antagonist

Source: patent US9487553B2, “Boranophosphate analogues of cyclic nucleotides” (BIOLOG LIFE SCIENCE INSTITUTE FORSCHUNGSLABOR UND …, priority 2011, dated 2016)
